According to patent US20120196334A1, “LIGF-TYPE ENZYMES FOR BIOCONVERSION OF LIGNIN-DERIVED COMPOUNDS” (priority 2010, published 2012):

B1: ligE1: Novosphingobium aromaticivorans putative beta-etherase, glutathione S-transferase-like polypeptide, GenBank ABD26841.1, expressed in E. coli (protein)
chain: MAANNTITFYDLALSTGATISPFVWATKYALKHKGFDLDVVPGGFTGILERTGGKTERLPAIVDDGEFVLDSWGIVEYLDAKYPDRPVLIPHESVAATLKALDNWFWNAAVGPWMFCFCQDYRDLSLPQDHEYVTHSREKMLGRKLEEVQAGREERLPKISAALEPLRAALAQHQWLGGSSPNYADYRIMGGILFTASVCKTPVLANDDPLRDWIERCLDLYGGLGRHPGLFPLFGLEQREGDPDLFNRAAGQGGIYKRNTGPESTRAETQRITEGMKK
B2: ligE: Sphingomonas paucimobilis beta-etherase LigE, positive control polypeptide (protein)
chain: MARNNTITLYDLQLESGCTISPYVWRTKYALKHKGFDIDIVPGGFTGILERTGGRSERVPVIVDDGEWVLDSWVIAEYLDEKYPDRPMLFEGPTQKNLMKFLDNWLWSTAVGPWFRCYILDYHDLSLPQDRDYVRWSREQWFLGGQRLEDVQAGREDRLPLVPPTLEPFRRILAETKWLGGDQPNFADYSALAVFLWTASVARTPPLTEDDPLRDWLDRGFDLFDGLGRHPGMNPLFGLKLREGDPEPFVRQTGPAGAGGQALNKGPQTTKMPPRVAEKAD
B3: LigF2: Novosphingobium aromaticivorans putative beta-etherase, glutathione S-transferase-like polypeptide LigF-2 (protein)
chain: MALKYYHAEPLANSLKSMVPLKEKGLAYESIYVDLHKFEQHQPWFTAINPEGQVPVLDHDGTIITHTTVINEYLEDAFPDAQPADAPLRPRDPVGAARMRYWNKFIDEHVMNYVSMHGWHRMVGVIARNIASGDFEKLLESIPLPDQRKKWATARSGFSEADLANATAKIEYALDKVEKQLGETKWLAGDTYTLADINFYSHCGAMVERMFPEMEVARRAPRLCEWRDRVAARPAVAEALKSEDRTAPGLRVWSGEVR
B4: LigF: Sphingomonas paucimobilis beta-etherase LigF, positive control polypeptide (protein)
chain: MTLKLYSFGPGANSLKPLATLYEKGLEFEQVFVDPSKFEQHSDWFKKINPRGQVPALWHDGKVVTESTVICEYLEDVFPESGNSLRPADPFKRAEMRVWTKWVDEYFCWCVSTIGWAFGIKAIAQKMSDEEFEEHINKNVPIPEQQLKWRRARNGFPQEMLDEEFRKVGVSVARLEETLSKQDYLVDTGYSLADICNFAIANGLQRPGGFFGDYVNQEKTPGLCAWLDRINARPAIKEMFEKSKREDLLKRQNEKVA
B5: ABD26530.1: Novosphingobium aromaticivorans putative beta-etherase polypeptide LigF-1 (protein)
chain: MVIPLGEDNTIMLKLYSFGPAANSMKPLLTVFEKGLDVEKHRLDPAKFEHHTDWFKAINPRGQVPALVDGDKVVTESTVICEYLEDEYPTEVALRPADSFGKAQMRIWTKWVDEYFCWCVSTIGWHRYVGNMVKSLSDAEFEEKVKAIPVIEQQVKWRRAREGFPQDMLDEEMRKIAYSVRKLDDHLADHEWLVPGQYTLADICNFAIANGMQFGFAELVNKQDTPHLVRWIEQINERPAVKQMFAQVELEKLGPRE
B6: ABD27309.1: Novosphingobium aromaticivorans putative beta-etherase polypeptide LigF-3 (protein)
chain: MDEVSLYHWEPNANSGKPMLALMEKGVPFSSHYIDMLQFDQHKPEYLAINPQGTIPAMTHNGQVLTESTAIMEYVNDRFDGPDLMPADAQDRWRVRWWMKFMDQWLGPSFSMIGWSVFVGPMVRQRDPAELAAAIDRIPLPERRTAWRKAINGDFSESEMAESRRRVGLGIAKLEEELGKRPYVGSNQYSLADINIFNSTYSLPISQPDLAGKDRTPNIMRWLKRVYTREAVKKTWAMGKTDLAHRYGLIMAEIEG

System: Escherichia coli
Experiment: not given
Settings: benzaldehyde derivatives; stated as demonstrated; cited from earlier work

Molecule | antibacterial activity against Escherichia coli
O=Cc1cccc(O)c1O [2,3-dihydroxybenzaldehyde] | antibacterial activity
O=Cc1ccc(O)c(O)c1O [2,3,4-trihydroxybenzaldehyde] | antibacterial activity
COc1cc(O)cc(OC)c1C=O [4-hydroxy-2,6-dimethoxybenzaldehyde] | antibacterial activity
O=Cc1c(O)cc(O)cc1O [2,4,6-trihydroxybenzaldehyde] | antibacterial activity
O=Cc1ccc(O)cc1O [2,4-dihydroxybenzaldehyde] | antibacterial activity
COc1cccc(C=O)c1O [2-hydroxy-3-methoxybenzaldehyde] | antibacterial activity
O=Cc1cc(O)ccc1O [2,5-dihydroxybenzaldehyde] | antibacterial activity
COc1ccc(O)c(C=O)c1 [2-hydroxy-5-methoxybenzaldehyde] | antibacterial activity
O=Cc1ccccc1O [2-hydroxybenzaldehyde] | antibacterial activity

Same assay, conditions: stated as known; cited from earlier work

Molecule | antimicrobial activity against Escherichia coli
COc1cc(C=O)ccc1O [vanillin] | antimicrobial activity
O=Cc1ccc(O)cc1 [4-hydroxybenzaldehyde] | antimicrobial activity
O=Cc1ccco1 [furfural] | antimicrobial activity
COc1cc(C=O)cc(OC)c1O [syringaldehyde] | antimicrobial activity
O=Cc1ccc(CO)o1 [5-hydroxymethylfurfural] | antimicrobial activity

System: not listed separately
Experiment: in vitro biochemical assay for beta-etherase activity on fluorescent substrate MUAV (4MU formation)
Settings: E. coli cell extracts expressing the protein; 0.1 mM MUAV substrate
Excerpt: The model substrate synthesis 150 for use in the biochemical screening for selective activity can be outsourced through a contract research organization (CRO). The enzyme discovery effort can initially be focused on identifying potential beta-etherase candidate genes identified through bioinformatic methods. […] The fluorescent substrate α-O-(β-methylumbelliferyl) acetovanillone (MUAV), for example, can be used in in vitro assays to identify beta-etherase function (Acme Biosciences, Mt. View, Calif.). The formation of 4 methylumbelliferone (4MU) upon hydrolysis of the aryl ether bond can be monitored by fluorescence, for example, at λex=365 nm and λem=450 nm (or 460 nm).
The enzyme screening 155 is done to identify novel etherases 160. […] Expression of the beta-etherase genes can be done in 5 ml or 25 ml samples of the recombinant E. coli strains in LB medium using induction with IPTG. Following induction, and cell harvest, cell pellets can be lysed using the BPER (Invitrogen) cell lysis system. […] The formation of 4 methylumbelliferone (4MU) upon hydrolysis of the aryl ether bond in MUAV can be monitored by fluorescence at λex=365 nm and λem=460 nm, and can provide quantitative measurement of beta-etherase function. Cell extracts of E. coli transformed with the S. paucimobilis ligE and ligF genes can be the assay positive controls. Test or unknown samples can include, for example, E. coli strains expressing putative beta-etherase genes from N. aromaticovorans.
This example describes a method for gene expression in E. coli, as well as beta-etherase biochemical assays. Expression of known and putative beta-etherase genes was performed using 5 ml cultures of the recombinant E. coli strains described herein in Luria Broth medium by induction of gene expression using isopropylthiogalactoside (IPTG) to a final concentration of 0.1 mM. Following induction, and cell harvest, the cells were disrupted using either sonication or the BPER (Invitrogen) cell lysis system.
In vitro reactions were performed in a total volume of 200 ul and contained: 25 mM TrisHCl pH 7.5; 0.5 mM dithiothreitol; 1 mM glutathione; 0.05 mM or 0.1 mM MUAV; 10 ul of clarified cell extract used to initiate the reactions. Following incubation for 2.5 hours at room temperature, a 50 ul sample of the reactions was terminated using 150 uL of 300 mM glycine/NaOH buffer pH 9. The formation of 4 methylumbelliferone (4MU) upon hydrolysis of the aryl ether bond was monitored by the increase in fluorescence at λex=360 nm and λem=450 nm using a Spectramax UV/visible/fluorescent spectrophotometer.
The total protein concentrations of the cell lysates were determined using the BCA reagent system for protein quantification (Pierce).
Induction might be also performed using IPTG concentrations in the range of 0.01-1 mM. Cell disruption might be also performed using toluene permeabilization, French, pressure techniques, or using multiple freeze/thaw cycles in conjunction with lysozyme. Assay conditions might be varied to include TrisHCl at 10-150 mM concentrations and in the pH range of 6.5-8.5; 0-2 mM dithiothreitol; 0.05-2 mM glutathione; 0.01-5 mM MUAV substrate; 22-42° C. reaction temperatures. The biochemical assay might be performed as a fixed time point assay with reaction times ranging from 5 minutes-12 hours, or performed continuously without quenching with glycine/NaOH buffer to extract enzyme kinetic parameters.

Molecule | total activity (beta-etherase) [rfu/ug]
B1 | 529
B2 | 7
B3 | 1206
B4 | 558

Same assay, conditions: MUAV substrate; compared with S. paucimobilis LigF

Molecule | efficiency relative to S. paucimobilis LigF protein
B3 | approximately 2 fold

Same assay, conditions: MUAV substrate; compared with S. paucimobilis ligE

Molecule | efficiency relative to S. paucimobilis ligE beta-etherase
B1 | approximately 75 fold

Same assay, conditions: recombinant polypeptide expressed in E. coli

Molecule | beta-etherase activity on the MUAV substrate (in words)
B1 | beta-etherase activity
B3 | beta-etherase activity
B5 | beta-etherase activity
B6 | beta-etherase activity

System: Saccharomyces cerevisiae
Experiment: not given
Settings: stated as background; cited from earlier work

Molecule | antifungal activities against the yeast Saccharomyces cerevisiae
O=C(O)C=Cc1ccccc1 [cinnamic acid] | significant antifungal activities
COc1cc(CCC(C)=O)ccc1O [vanillylacetone] | significant antifungal activities
O=C(O)/C=C/c1cccc(O)c1 [m-coumaric acid] | significant antifungal activities
O=C(O)/C=C/c1ccc(O)cc1 [p-coumaric acid] | significant antifungal activities
O=C(O)/C=C/c1ccccc1O [o-coumaric acid] | significant antifungal activities
COc1ccc(C=O)cc1OC [Veratraldehyde] | significant antifungal activities
COc1cc(C(=O)O)ccc1O [vanillic acid] | significant antifungal activities
